Measurements as given in PubChem BioAssay AID1259407 (Chemical Carcinogenesis Research Information System (CCRIS), 2018).
The source made the active and inactive calls. No rule for the calls is given here.

System: CCRIS mutagenicity, Ames/micronucleus/aberration tests
Experiment: CCRIS mutagenicity studies
[1] = Test System: AMES SALMONELLA TYPHIMURIUM, Strain/Indicator: TA1535, Metabolic Activation: NONE, Method: PREINCUBATION
[2] = Test System: AMES SALMONELLA TYPHIMURIUM, Strain/Indicator: TA98, Metabolic Activation: NONE, Method: STANDARD PLATE
[3] = Test System: AMES SALMONELLA TYPHIMURIUM, Strain/Indicator: TA100, Metabolic Activation: NONE, Method: STANDARD PLATE
[4] = Test System: AMES SALMONELLA TYPHIMURIUM, Strain/Indicator: TA1535, Metabolic Activation: NONE, Method: STANDARD PLATE
[5] = Test System: AMES SALMONELLA TYPHIMURIUM, Strain/Indicator: TA1537, Metabolic Activation: NONE, Method: STANDARD PLATE
[6] = Test System: AMES SALMONELLA TYPHIMURIUM, Strain/Indicator: TA1538, Metabolic Activation: NONE, Method: STANDARD PLATE
[7] = Test System: AMES SALMONELLA TYPHIMURIUM, Strain/Indicator: TA98, Metabolic Activation: NONE, Method: PREINCUBATION
[8] = Test System: AMES SALMONELLA TYPHIMURIUM, Strain/Indicator: TA100, Metabolic Activation: NONE, Method: PREINCUBATION

`CC(=O)OC(C(C)=O)N(C)N=O` (stereo unspecified) was tested, and the mutagenic call [1] was “active; positive”.

In the case of `CCCCC(CC)COC(=O)COc1ccc(Cl)cc1Cl` (stereo unspecified), the mutagenic call [2] is reported as “inactive; negative”, the mutagenic call (Test System: AMES SALMONELLA TYPHIMURIUM, Strain/Indicator: TA98, Metabolic Activation: RAT LIVER S-9, AROCLOR 1254, 10%, Method: STANDARD PLATE) is reported as “inactive; negative” and the mutagenic call [3] is reported as “inactive; negative”. For the same compound, the mutagenic call (Test System: AMES SALMONELLA TYPHIMURIUM, Strain/Indicator: TA100, Metabolic Activation: RAT LIVER S-9, AROCLOR 1254, 10%, Method: STANDARD PLATE) was “inactive; negative”, the mutagenic call [4] was “inactive; negative” and the mutagenic call (Test System: AMES SALMONELLA TYPHIMURIUM, Strain/Indicator: TA1535, Metabolic Activation: RAT LIVER S-9, AROCLOR 1254, 10%, Method: STANDARD PLATE) was “inactive; negative”. For the same compound, the mutagenic call [5] was “inactive; negative”, the mutagenic call (Test System: AMES SALMONELLA TYPHIMURIUM, Strain/Indicator: TA1537, Metabolic Activation: RAT LIVER S-9, AROCLOR 1254, 10%, Method: STANDARD PLATE) was “inactive; negative” and the mutagenic call [6] was “inactive; negative”. For the same compound, the mutagenic call (Test System: AMES SALMONELLA TYPHIMURIUM, Strain/Indicator: TA1538, Metabolic Activation: RAT LIVER S-9, AROCLOR 1254, 10%, Method: STANDARD PLATE) was “inactive; negative” and the mutagenic call (Test System: UDS RAT HEPATOCYTES, Strain/Indicator: THYMIDINE INCORPORATION, Metabolic Activation: NONE, Method: AUTORADIOGRAPHY) was “inactive; negative”.

For `[O][Cl+][O-]`, the mutagenic call (End Point: IN VIVO MICRONUCLEUS, Test System: BONE MARROW POLYCHROMATIC ERYTHROCYTES, Species: MOUSE, Strain/Sex: DDY/MALE, Route: IP) was “active; positive”.

For `Cc1c(N)cc([N+](=O)[O-])c(N)c1C`, the mutagenic call [2] was “active; positive”, the mutagenic call (Test System: AMES SALMONELLA TYPHIMURIUM, Strain/Indicator: TA98, Metabolic Activation: RAT, LIVER, S-9, AROCLOR 1254, Method: STANDARD PLATE) was “active; positive” and the mutagenic call [3] was “inactive; negative”. For the same compound, the mutagenic call (Test System: AMES SALMONELLA TYPHIMURIUM, Strain/Indicator: TA100, Metabolic Activation: RAT, LIVER, S-9, AROCLOR 1254, Method: STANDARD PLATE) was “inactive; negative”, the mutagenic call [4] was “inactive; negative” and the mutagenic call (Test System: AMES SALMONELLA TYPHIMURIUM, Strain/Indicator: TA1535, Metabolic Activation: RAT, LIVER, S-9, AROCLOR 1254, Method: STANDARD PLATE) was “inactive; negative”. For the same compound, the mutagenic call [5] was “inactive; negative”, the mutagenic call (Test System: AMES SALMONELLA TYPHIMURIUM, Strain/Indicator: TA1537, Metabolic Activation: RAT, LIVER, S-9, AROCLOR 1254, Method: STANDARD PLATE) was “inactive; negative” and the mutagenic call [6] was “active; positive”. For the same compound, the mutagenic call (Test System: AMES SALMONELLA TYPHIMURIUM, Strain/Indicator: TA1538, Metabolic Activation: RAT, LIVER, S-9, AROCLOR 1254, Method: STANDARD PLATE) was “active; positive”.

In the case of `O[C@H]1[C@H]2O[C@H]2c2c(ccc3cc4ccc5ccccc5c4nc23)[C@@H]1O`, the mutagenic call [7] is reported as “active; positive”, the mutagenic call [8] is reported as “active; positive” and the mutagenic call (Test System: CHINESE HAMSTER V-79, Strain/Indicator: V-79/8-AZAGUANINE, Metabolic Activation: NONE, Method: STANDARD PLATE) is reported as “active; positive”.

For `NS(=O)(=O)c1cc2c(cc1Cl)NC=NS2(=O)=O`, the mutagenic call (Test System: AMES SALMONELLA TYPHIMURIUM, Strain/Indicator: TA97, Metabolic Activation: HAMSTER, LIVER, S-9, AROCLOR 1254 (10 OR 30%), Method: PREINCUBATION) was “inactive; negative”, the mutagenic call (Test System: AMES SALMONELLA TYPHIMURIUM, Strain/Indicator: TA97, Metabolic Activation: NONE, Method: PREINCUBATION) was “inactive; negative” and the mutagenic call (Test System: AMES SALMONELLA TYPHIMURIUM, Strain/Indicator: TA97, Metabolic Activation: RAT, LIVER, S-9, AROCLOR 1254 (10 OR 30%), Method: PREINCUBATION) was “inactive; negative”. For the same compound, the mutagenic call (Test System: AMES SALMONELLA TYPHIMURIUM, Strain/Indicator: TA98, Metabolic Activation: HAMSTER, LIVER, S-9, AROCLOR 1254 (10 OR 30%), Method: PREINCUBATION) was “inactive; negative”, the mutagenic call [7] was “inactive; negative” and the mutagenic call (Test System: AMES SALMONELLA TYPHIMURIUM, Strain/Indicator: TA98, Metabolic Activation: RAT, LIVER, S-9, AROCLOR 1254 (10 OR 30%), Method: PREINCUBATION) was “inactive; negative”. For the same compound, the mutagenic call (Test System: AMES SALMONELLA TYPHIMURIUM, Strain/Indicator: TA100, Metabolic Activation: HAMSTER, LIVER, S-9, AROCLOR 1254 (10 OR 30%), Method: PREINCUBATION) was “inactive; negative”, the mutagenic call [8] was “inactive; negative” and the mutagenic call (Test System: AMES SALMONELLA TYPHIMURIUM, Strain/Indicator: TA100, Metabolic Activation: RAT, LIVER, S-9, AROCLOR 1254 (10 OR 30%), Method: PREINCUBATION) was “inactive; negative”. The mutagenic call (Test System: AMES SALMONELLA TYPHIMURIUM, Strain/Indicator: TA1535, Metabolic Activation: HAMSTER, LIVER, S-9, AROCLOR 1254 (10 OR 30%), Method: PREINCUBATION) was “inactive; negative”, the mutagenic call [1] was “inactive; negative” and the mutagenic call (Test System: AMES SALMONELLA TYPHIMURIUM, Strain/Indicator: TA1535, Metabolic Activation: RAT, LIVER, S-9, AROCLOR 1254 (10 OR 30%), Method: PREINCUBATION) was “inactive; negative”. For the same compound, the mutagenic call (Test System: AMES SALMONELLA TYPHIMURIUM, Strain/Indicator: TA1537, Metabolic Activation: HAMSTER, LIVER, S-9, AROCLOR 1254 (30%), Method: PREINCUBATION) was “inactive; negative”, the mutagenic call (Test System: AMES SALMONELLA TYPHIMURIUM, Strain/Indicator: TA1537, Metabolic Activation: NONE, Method: PREINCUBATION) was “inactive; negative” and the mutagenic call (Test System: AMES SALMONELLA TYPHIMURIUM, Strain/Indicator: TA1537, Metabolic Activation: RAT, LIVER, S-9, AROCLOR 1254 (30%), Method: PREINCUBATION) was “inactive; negative”.

`COc1cc(/C=C/C(=O)O[C@H]2CC[C@]34C[C@]35CC[C@]3(C)[C@@H]([C@H](C)CCC=C(C)C)CC[C@@]3(C)[C@@H]5CC[C@H]4C2(C)C)ccc1O` was tested, and the mutagenic call [2] was “inactive; negative”, the mutagenic call (Test System: AMES SALMONELLA TYPHIMURIUM, Strain/Indicator: TA98, Metabolic Activation: S9, Method: STANDARD PLATE) was “inactive; negative” and the mutagenic call [3] was “inactive; negative”. For the same compound, the mutagenic call (Test System: AMES SALMONELLA TYPHIMURIUM, Strain/Indicator: TA100, Metabolic Activation: S9, Method: STANDARD PLATE) was “inactive; negative”, the mutagenic call [4] was “inactive; negative” and the mutagenic call (Test System: AMES SALMONELLA TYPHIMURIUM, Strain/Indicator: TA1535, Metabolic Activation: S9, Method: STANDARD PLATE) was “inactive; negative”. For the same compound, the mutagenic call [5] was “inactive; negative”, the mutagenic call (Test System: AMES SALMONELLA TYPHIMURIUM, Strain/Indicator: TA1537, Metabolic Activation: S9, Method: STANDARD PLATE) was “inactive; negative” and the mutagenic call (Test System: E.COLI, Strain/Indicator: WP2 UVRA, Metabolic Activation: NONE, Method: STANDARD PLATE) was “inactive; negative”. For the same compound, the mutagenic call (Test System: E.COLI, Strain/Indicator: WP2 UVRA, Metabolic Activation: S9, Method: STANDARD PLATE) was “inactive; negative”.
